The subject of data set [1] is MNV-1. Kind of data set: MNV-1 infection of RAW264.7 cells and plaque assay. The data set is classed as cell-based, murine norovirus. The conditions noted are these: RAW264.7 pre-treated 0.5 h with 2.5 µM; MOI 5; 8 h infection; plaque assay. The protocol: RAW264.7 cells were plated at a density of 5×10^5 cells/ml in each well of a 12-well plate and allowed to attach overnight. The following day, cells were incubated with either 5 µM WP1130 or 2.5 µM compound 9, for 30 min at 37°C. After incubation, cells were placed on ice for 1 hour where they were infected with MNV-1 at an MOI of 5. Cells were then washed three times with ice-cold PBS. Cells treated with compound 9 received media alone after washing, while media containing WP1130 or DMSO was added back to cells and the infection was allowed to proceed for 8 hours. Cells were freeze-thawed twice, and viral titers were determined by plaque assay as previously described.

The test system of data set [2] is HG23 cells. Nature of the data set: WST-1 cell viability assay in HG23 replicon cells. The format is cell-based, human. The conditions noted are these: 2.5 µM for 2 h, then 22 h. The protocol: For cell viability assays in conditions that mimicked the viral infections, RAW264.7 cells were cultured as described above and treated for 0.5 h with 5 µM WP1130 or 2.5 µM compound 9, incubated for 1 h on ice, washed three times with ice-cold PBS and incubated for an additional 8 h in presence of DMSO and WP1130 only. One and a half hours prior to the end of the experiment, the WST-1 reagent was diluted 1 in 10 in the media. For cell viability in HG23 replicon cells, DMSO and WP1130 remained on the cells for 24 h before incubation with the WST-1 reagent, whereas compound 9 was removed after a 2 h exposure and the WST-1 reagent added after an additional 22 h.
In general terms: Tetrazolium dyes change colour on reduction, which living cells bring about.

Data set [3] concerns L. monocytogenes. Nature of the data set: Bactericidal test on exponential-phase bacteria, 2 h at 4°C. The conditions noted are these: concentrations up to 5 µM, exponential growth phase. The data set is classed as cell-based, Listeria monocytogenes 10403S. The protocol:
(§1) For bacterial growth curve in broth culture, an overnight culture of L. monocytogenes was back-diluted 1∶50 into BHI broth in the presence of 5 µM of compounds 1 to 4, 2.5 µM of compound 9 or equivalent volume of DMSO and incubated statically at 30°C for up to 8 h. At indicated time points (0, 2, 4, 6 and 8 h), a 50 µl-aliquot of bacteria was serially diluted and plated on LB agar to determine the number of CFU. To test the bactericidal properties of compound 9, an overnight culture of L. monocytogenes was back-diluted 1∶50 into BHI broth and allowed to grow at 37°C with shaking until an optical density at 600 nm (OD600) of ∼0.6–0.7 was obtained. Bacteria were then exposed to 1, 2.5 or 5 µM of compound 9 or equivalent volume of DMSO for 2 h at 4°C. After incubation, bacteria were serially diluted and plated on LB agar to determine CFU.

Data set [4] has as its system RAW264.7 cells. Kind of data set: WST-1 cell viability assay, conditions mimicking the bacterial infection protocol. The format is cell-based, murine. The conditions noted are these: 2.5 µM, 0.5 h pre-treatment, then 8 h. The protocol: For cell viability assays in conditions that mimicked the bacterial infection protocol, RAW264.7 cells were cultured at an initial density of 4×10^6 cells per 96-well plate. Cells were treated with 2.5 or 5 µM DUB inhibitors dissolved in DMSO for 0.5 h or 1 h or with equivalent volume of DMSO. DUB inhibitors were removed after treatment by washing three times with PBS, and cells were incubated in culture media for 6.5 h at 37°C. The WST-1 reagent (Roche, San Francisco, CA), which measures mitochondrial dehydrogenase activity, was diluted 1 in 10 in media and cells were incubated at 37°C for an additional 1.5 h. The optical density at 440 nm (OD440) and 600 nm (OD600) was determined and results were normalized to DMSO-treated cells.

Data set [5] in a line: Aqueous kinetic solubility. The data set is classed as physicochemical.
Data set [6] relates to ubiquitinated proteins (DUB activity) in RAW264.7 cells. Nature of the data set: Anti-ubiquitin immunoblot of RAW264.7 whole-cell lysates. The format is cell-based, murine. The conditions noted are these: 2.5 µM, uninfected RAW264.7 cells, treatment 0.5 h to 6 h. The protocol: RAW264.7 cells were cultured at an initial density of 4×10^6 cells per 6-well plate and allowed to adhere overnight. Macrophages were treated with 2.5 µM compound 9 for the indicated period of time. To obtain whole-cell lysates, cells were lysed in cell lysis buffer (10 mM Tris pH 8, 150 mM NaCl, 1% NP-40, 10 mM EDTA pH 8, 1 mM DTT and 1X protease inhibitors), incubated for 15 min on ice and briefly sonicated. Samples were diluted in 5X concentrated sample buffer containing β-mercaptoethanol and denatured at 95°C for 10 min. The samples were separated by SDS-PAGE on an 8% acrylamide gel and transferred to polyvinyldene fluoride membrane (PVDF, Millipore). Immunodetection was performed using an anti-ubiquitin monoclonal antibody (P4D1 clone, Santa Cruz), according to manufacturer’s instructions.
Background: A western blot detects proteins with antibodies after separation by electrophoresis.

In data set [7] the test system is Norwalk virus replicon. Nature of the data set: HuNoV (Norwalk virus) replicon assay in HG23 cells, qRT-PCR. The format is cell-based, human norovirus. The conditions noted are these: 2.5 µM for 2 hours, genomes quantitated after 24 h by qRT-PCR, normalized to DMSO. As for the experimental part:
HG23 cells containing the Norwalk virus replicon plasmid under G418-selection were plated at 5×10^5 cells per well in 12-well plates and allowed to attach overnight. Afterwards, media was aspirated and replaced with fresh media containing DMSO, 5 µM WP1130, or 2.5 µM compound 9. DMSO and WP1130 remained on the cells for 24 hours, whereas compound 9 was removed after 2 hours. At the end of the experiment, media was aspirated, cells were washed once with PBS and total cellular RNA was isolated using the QIAGEN RNeasy Mini kit (QIAGEN, Valencia, CA). Following the manufacturer’s protocol, RNA was subjected to two rounds of DNase treatment. First, an on-column RNase-free DNase treatment (QIAGEN, Valencia, CA) was performed for 15 minutes at room temperature. After elution, another round of DNase treatment was performed using the DNA-free DNase removal kit (Ambion, Austin, TX). RNA concentration and purity were measured using a spectrophotometer, calculating the 260/280 ratio. RNA integrity (as well as the absence of DNA contamination) was confirmed by One-Step Reverse Transcription-Polymerase Chain Reaction (RT-PCR) using “No RT” controls. Norwalk virus genomes were then quantitated by qRT-PCR as previously described.
A general note: Replicon systems follow genome replication, usually without infectious particles.

Data set [8] deals with L. monocytogenes. Nature of the data set: Bacterial growth curve in BHI broth culture. The format is cell-based, Listeria monocytogenes 10403S. The conditions noted are these: 2.5 µM in BHI broth. As for the experimental part:
as §1

In data set [9] the test system is USP9x. Also on record: method as in Donato, N. J., manuscript in preparation. The conditions noted are these: cell-based assay; ref Donato, N. J., manuscript in preparation; read-out: IC50 against USP9x; cited from earlier work.

SMILES strings stand for the structures. ≈ marks a conversion by molar mass, not a printed value.

The term kinetic solubility denotes solubility judged after dilution from a stock solution rather than from solid. As usually defined, the IC50 is the concentration at which inhibition is half-maximal. Consider `CCCC(NC(=O)/C(C#N)=C/c1nc(Cl)ccc1Cl)c1ccc(OCCN2CCOCC2)cc1` (centres unmarked) [Compound 9], for which, in data set [1], the “decrease in MNV-1 titers compared to DMSO-treated cells” value was “more than 2.5 logs”. Further, the “toxicity (WST-1 viability)” value in [2] is “no toxicity”. The bactericidal activity result in data set [3] was “No bactericidal activity”. Also, in [4], the “cellular toxicity (WST-1 viability)” value is given as “little cellular toxicity”. Also, the kinetic solubility in data set [5] (aqueous (not further specified)) was around 20 µM (≈ 10.1 µg/mL). For the same molecule, in data set [5] (compound 9 compared to WP1130), the “improvement in solubility vs WP1130” value was above 6 fold. Also, the “accumulation of ubiquitinated proteins (immunoblot)” value in [6] is listed as “ubiquitinated proteins accumulated as soon as 0.5 h”. Also, the “reduction of detectable Norwalk virus genomes” value in [7] is reported as 84.7%. Also, in data set [8], the “effect on overall CFU per ml by 8 h in broth culture” value is “did not significantly affect overall CFU per ml by 8 h”. Moreover, the “effect on growth rate in axenic broth culture” value in [8] (up to 8 h) was “modest decrease in the growth rate”. Moreover, the IC50 in data set [9] was 1800 nM.
